The results in this text go back to the Bradley open melting point set (2014).

Structures are written as SMILES. Where “and” joins values, the source holds several entries; their conditions need not be identical. Identical values can stand only once.

Usually melting point stands for the temperature, or range, at which the solid turns liquid. In turn, `N#Cc1ccc2ncsc2c1` [benzothiazole-6-carbonitrile] came in with a melting point of 138 °C.

Compound `CCOc1ccc(OCC)cc1` [p-diethoxybenzene] showed a melting point of 72 °C.

For the compound `CC=C(C)C` [2-methyl-2-butene], the melting point was -134 °C.

For `CCCCCCCCCCc1ccccc1` [decylbenzene], the melting point was -14 °C.

`O=C(O)CSc1ccc(C(F)(F)F)cc1` [[4-(trifluoromethyl)phenylthio]acetic acid] came in with a melting point of 116 °C.

Compound `CO/C(C)=C(\C#N)c1ccccc1[N+](=O)[O-]` [(2Z)-3-methoxy-2-(2-nitrophenyl)but-2-enenitrile] gave a melting point of 68 °C.

Consider `CCCCC(=O)CC` [3-heptanone], for which the melting point is -37 °C.

Consider `CCCCCCc1ccccc1` [Hexylbenzene], for which the melting point was -61 °C.

In the case of `COc1ccc(B(O)O)c(OC)n1` [2,6-dimethoxypyridine-3-boronic acid], the melting point was 129 °C.

`Nc1nc2ccc([N+](=O)[O-])cc2s1` [2-amino-6-nitrobenzothiazole] registered a melting point of 248 °C.

Take `OCc1ccc(O)cc1` [4-hydroxybenzyl_alcohol]: the melting point turned out to be 112 °C.

Compound `FC(F)(F)c1ccc(Cl)c(Cl)c1` [3,4-dichlorobenzotrifluoride] registered a melting point of -12 °C.

`CC(C)Cc1ccc(C(C)C(=O)O)cc1` (stereo not drawn) [(+/+)-ibuprofen] registered a melting point of 74.6 °C.

Take `O=C(Cl)CCCCl` [4-chlorobutyryl chloride]: the melting point was -49 °C.

The compound `N[C@@H](Cc1ccc(O)c(O)c1)C(=O)O` [l-dopa] returned a melting point of 277 °C.

In turn, `Oc1ccc(Cl)c(O)c1` [4-Chlorobenzene-1,3-diol] had a melting point of 107 °C.

With `Nc1cccc(-n2ccccc2=O)c1` [amphenidone], the melting point is 183 °C.

For `NCc1ccc2c(Br)cccc2c1` [1-(5-bromonaphthalen-2-yl)methanamine], the melting point was 112 °C.

The compound `CC(=O)Nc1ccccc1NNc1ccccc1` [N-[2-(2-phenylhydrazino)phenyl]acetamide] showed a melting point of 168 °C.

In the case of `CCCCC1(CC)C(=O)NC(=O)NC1=O` [Butethal], the melting point stood at 128 °C.

`O=C(O)[C@@H]1C[C@@H]2C[C@H]1[C@@H](O)C2` yielded a melting point of 161 °C.

Regarding `Brc1ccccc1-c1ccccc1` [2-bromobiphenyl], the melting point came to 2 °C.

In turn, `O=C(CO)CO` [1,3-Dihydroxyacetone] gave a melting point of 75 °C.

`CC(=O)c1cc(O)cc(O)c1` [3',5'-dihydroxyacetophenone] yielded a melting point of 144 °C.

Consider `O=Cc1cccc(B(O)O)c1` [3-formylbenzeneboronic acid], for which the melting point worked out at 111 °C.

In turn, `O=C(O)c1ccccc1Nc1ccccc1` [N-phenylanthranilic acid] registered a melting point of 187 °C.

`O=C(O)c1cccc(Br)c1` [3-Bromobenzoic acid] showed a melting point of 157 °C.

On to `O=C(Nc1ccc([N+](=O)[O-])cc1Cl)c1cc(Cl)ccc1O` [5-Chloro-N-(2-chloro-4-nitrophenyl)-2-hydroxybenzamide], for which the melting point is 223 °C.

`NC(=O)c1ccccc1OC(F)(F)F` [2-(trifluoromethoxy)benzamide] yielded a melting point of 154 °C.

For the compound `O=C(O)c1cc(F)c(Cl)nc1Cl` [2,6-dichloro-5-fluoronicotinic acid], the melting point was found to be 154 °C.

`Oc1cccc(Cl)c1Cl` [2,3-dichlorophenol] had a melting point of 59 °C.

The compound `O=C(O)c1cc(O)ccc1O` [2,5-Dihydroxybenzoic acid] displayed a melting point of 205 °C.

In turn, `C[C@H](N)C(=O)N[C@@H](C)C(=O)O` [L-Alanyl-L-alanine] gave a melting point of 280 °C.

The compound `Cn1c2c(c3ccccc31)CCCC2` [N-methyl-1,2,3,4-tetrahydrocarbazole] came in with a melting point of 53 °C.

For `CCN(CC)CCNC(=O)c1cc(Cl)c(N)cc1OC` [Metoclopramide], the melting point was determined as 147 °C.

For the compound `CCCCCC(=O)O` [hexanoic_acid], the melting point was -3 °C.

In turn, `CCSCC` [diethyl sulfide] registered a melting point of -104 °C.

For the compound `Cc1c(Cl)cccc1C#N` [3-chloro-2-methylbenzonitrile], the melting point came to 22 °C.

`CCNCC` [N-Ethylethanamine] came in with a melting point of -50 °C.

The compound `C/C=C/C=O` [crotonaldehyde] returned a melting point of -76 °C.

As to `CN(C)c1ccc(/C=N/c2ccccc2)cc1` [N-(4-Dimethylaminobenzylidene)aniline], the melting point was 99 °C and 100 °C.

In the case of `CC(=O)Oc1ccc([N+](=O)[O-])cc1` [p-nitrophenyl_acetate], the melting point was determined as 78 °C.

In the case of `Cc1nc(-c2ccccn2)sc1C(=O)O` [4-methyl-2-(2-pyridyl)thiazole-5-carboxylic acid], the melting point was 226 °C.

`Nc1cccc2c(=O)[nH][nH]c(=O)c12` [3-aminophthalhydrazide] returned a melting point of 328 °C.

Compound `O=C1CCC2CCc3ccccc3C2O1` (centres undefined) [3,4,4a,5,6,10b-hexahydro-2H-benzo[h]chromen-2-one] yielded a melting point of 139 °C.

Compound `CC(C)(C)C1CCC(=O)CC1` [4-tert-butylcyclohexanone] had a melting point of 49 °C.

For `Cc1nc(-c2cccnc2)sc1C(=O)O` [4-methyl-2-(3-pyridyl)thiazole-5-carboxylic acid], the melting point was 246 °C.

Turning to `CCCCCCCCCCCCCc1ccccc1` [N-tridecylbenzene], the melting point was 10 °C.

Turning to `c1ccc(Cc2ccccc2)cc1` [diphenylmethane] [listing 1 of 2 here], the melting point is 90.5 °C.

In turn, `c1ccc(Cc2ccccc2)cc1` [diphenylmethane] [listing 2 of 2 here] registered a melting point of 24 °C.

Regarding `CC(C)(C)O` [2-methyl-2-propanol], the melting point was determined as 26 °C.

In turn, `C=C1[C@@H]2CC[C@@H](C2)C1(C)C` [camphene] displayed a melting point of 35 °C.

For `C` [Methane], the melting point was -182 °C.

As for `OCCCCO` [Butane-1,4-diol], the melting point came to 18 °C.

Consider `N=C1c2ccccc2C(=O)N1c1n[nH]c2ncccc12`, for which the melting point stood at 254 °C.

In the case of `CCc1ccccc1` [Ethylbenzene], the melting point is -94.9 °C.

Compound `CCOC(=O)OCC` [Diethyl carbonate] had a melting point of -43 °C.

In turn, `COc1cc(=O)oc2ccccc12` [4-methoxycoumarin] came in with a melting point of 124 °C.

For the compound `CN(CCCC(=O)c1cccnc1)N=O` [4-[Methyl(nitroso)amino]-1-(pyridin-3-yl)butan-1-one], the melting point came to 72 °C.

In the case of `CC(C)(C)C(=O)Nc1ccncc1` [4-(2,2,2-trimethylacetamido)pyridine], the melting point worked out at 136 °C.

In the case of `CC(=O)c1ccccc1[N+](=O)[O-]` [1-(2-Nitrophenyl)ethanone], the melting point stood at 23 °C.

The compound `Clc1ccc(C(c2ccc(Cl)cc2)C(Cl)(Cl)Cl)cc1` [4,4'-DDT] displayed a melting point of 110 °C.

Take `O=S(=O)=O` [Oxosulfane dioxide]: the melting point was 16.8 °C.

As for `ON=Cc1ccc(Cl)cc1` [4-Chlorobenzaldoxime], the melting point came to 101 °C.

Compound `BrCCCCCCCCBr` [1,8-dibromooctane] showed a melting point of 16 °C.

In the case of `BrCBr` [dibromomethane], the melting point is -53 °C.

Consider `O=C(O)CCl` [chloroacetic acid], for which the melting point was determined as 62 °C.

Consider `CNC(=O)c1cc([N+](=O)[O-])cc([N+](=O)[O-])c1` [benzamide, N-methyl-3,5-dinitro-], for which the melting point was determined as 149 °C.

In the case of `Cc1ccccc1OP(=O)(Oc1ccccc1C)Oc1ccccc1C` [Tris(2-methylphenyl) phosphate], the melting point was -33 °C.

Take `O=C(O)c1cc(Br)ccc1O` [5-bromosalicylic acid]: the melting point worked out at 168 °C.

In the case of `O=C1Cc2ccccc2CO1` [1,4-Dihydro-3H-isochromen-3-on], the melting point came out at 83 °C.

For `Clc1cccc(Cl)c1` [1,3-Dichlorobenzene], the melting point is -24.8 °C.

In the case of `Cc1ccc(N)c(Br)c1` [2-bromo-4-methylaniline], the melting point is 14 °C.

On to `O=C(O)c1ccc2ccccc2c1` [2-naphthoic acid], for which the melting point amounted to 184 °C.

As for `Cl[C@H]1[C@H](Cl)[C@@H](Cl)[C@@H](Cl)[C@H](Cl)[C@H]1Cl` [lindane], the melting point is 113 °C and 112 °C.

`Cc1ccc(Oc2ccccc2C=O)cc1` [2-(p-tolyloxy)benzaldehyde] displayed a melting point of 55 °C.

Take `c1ccc2c(c1)Cc1ccccc1-2` [9H-Fluorene]: the melting point came to 116 °C.

Compound `[O-][n+]1ccccc1Cl` [2-chloropyridine n-oxide] had a melting point of 69 °C.

Compound `Cn1c(=O)c2c(ncn2C)n(C)c1=O` [1,3,7-Trimethyl-3,7-dihydro-1H-purine-2,6-dione] yielded a melting point of 237 °C.

With `Clc1ccc(COC(Cn2ccnc2)c2ccc(Cl)cc2Cl)cc1` (centres undefined) [Ecostatin], the melting point turned out to be 87 °C.

For the compound `Clc1ccc(Cl)cc1` [1,4-Dichlorobenzene], the melting point was 55 °C.

`CC(=O)OCC(=O)c1ccccc1` [2-acetoxy_acetophenone] yielded a melting point of 89 °C.

`O=C(O)CC(O)(CC(=O)O)C(=O)O` [citric acid, anhydrous] displayed a melting point of 154 °C.

Take `Cc1ccc(C)c(N)c1` [2,5-dimethylaniline]: the melting point amounted to 15 °C.

Consider `COc1ccccc1P(c1ccccc1OC)c1ccccc1OC` [tris(2-methoxyphenyl)phosphine], for which the melting point amounted to 200 °C.

As to `[2H]C([2H])([2H])C([2H])([2H])C([2H])([2H])C([2H])([2H])C([2H])([2H])C([2H])([2H])C([2H])([2H])C([2H])([2H])C([2H])([2H])C([2H])([2H])C([2H])([2H])C([2H])([2H])C([2H])([2H])C([2H])([2H])C([2H])([2H])C([2H])([2H])C([2H])([2H])C(=O)O` [(~2~H_35_)Octadecanoic acid], the melting point was 67 °C.

Take `O=C(O)CCCC(=O)O` [glutaric acid]: the melting point is 97 °C.

The compound `CCC(=O)c1ccccc1` [propiophenone] registered a melting point of 19 °C.

For `N#Cc1cc(-c2ccccc2)cnc1Cl` [2-chloro-3-cyano-5-phenylpyridine], the melting point was 145 °C.
